Assay results: patent US20250163384A1, “ORGANOIDS DERIVED FROM HUMAN COLONIC CELLS AND METHODS OF MAKING AND USING THE SAME” (priority 2022, published 2025)

Assays:
Type in all cases: cell-based, human
[1] = tested on: GiLA1 organoid monolayers; experiment: Apoptosis-induced ERK waves and cell movement (particle image velocimetry) in GiLA1 organoid monolayers; settings: 5 μM Gefitinib (FIG. 3G), after an apoptotic event
Experimental: 384-well plates were imaged with fluorescent microscopy on a Nikon Eclipse TI2 automated microscope. For quantification of wave dynamics, organoids were imaged every 10-30 min. Tracking and segmentation of single cells in time lapse images in FIG. 2 was performed using the MATLAB program p53Cinema (Reyes et al., 2019). Analysis of the extracted data was performed in MATLAB. For the ERK activity heat maps in FIG. 3, images of the ERK-KTRmRuby2 and the H2B-iRFP670 were captured every 7 min for 24 hr. For each frame, individual nuclei were segmented using a MATLAB script developed in-house that identifies nuclei based on the H2B-iRFP670 images. The cytoplasmic ERK-KTRmRuby2 signal was obtained by creating a two pixel wide annulus surrounding the nucleus and averaging the intensity. Cells with active ERK were identified as having a mean ERK-KTR cytoplasmic signal>the mean ERK-KTR nuclear signal. The density-based spatial clustering of applications with noise algorithm (dbscan, MATLAB, 2021b) was performed on the centroids of ERK active cells to identify spatial clusters of cells with active ERK. A boundary was drawn around the spatial clusters using the boundary algorithm in MATLAB. […]
To determine the properties of the ERK waves, about 450 cells were tracked and their ERK activity was assessed over time following an apoptotic event (FIG. 3D, left panel and FIG. 3E). […]

ERK = ERK kinase translocation reporter (ERK-KTR) activity in GiLA1 organoid monolayers; settings: for time to activation of ERK: GiLA1 monolayers, ERK activation methods compared
Experimental: 384-well plates were imaged with fluorescent microscopy on a Nikon Eclipse TI2 automated microscope. For quantification of wave dynamics, organoids were imaged every 10-30 min. Tracking and segmentation of single cells in time lapse images in FIG. 2 was performed using the MATLAB program p53Cinema (Reyes et al., 2019). Analysis of the extracted data was performed in MATLAB. For the ERK activity heat maps in FIG. 3, images of the ERK-KTRmRuby2 and the H2B-iRFP670 were captured every 7 min for 24 hr. For each frame, individual nuclei were segmented using a MATLAB script developed in-house that identifies nuclei based on the H2B-iRFP670 images. The cytoplasmic ERK-KTRmRuby2 signal was obtained by creating a two pixel wide annulus surrounding the nucleus and averaging the intensity. Cells with active ERK were identified as having a mean ERK-KTR cytoplasmic signal>the mean ERK-KTR nuclear signal. The density-based spatial clustering of applications with noise algorithm (dbscan, MATLAB, 2021b) was performed on the centroids of ERK active cells to identify spatial clusters of cells with active ERK. A boundary was drawn around the spatial clusters using the boundary algorithm in MATLAB. The ERK positive regions of each frame were summed up to generate the heat map in MATLAB. MAPK/ERK signaling is a critical regulatory pathway involved in maintaining homeostasis of epithelia in the gut (Wei et al., 2020). To assess ERK activity in human organoid monolayers over time, we utilized a well-characterized ERK kinase translocation reporter (ERK-KTR) (Regot et al., 2014). The ERK-KTR utilizes a bipartite nuclear localization signal (NLS) and nuclear export signal (NES) to transform ERK kinase activity into a nuclear to cytoplasmic shuttling event that is easily quantified by microscopy in organoid monolayers (FIG. 3A). We transduced the GiLA1 organoid line with a H2B-iRFP670 nuclear marker and ERK-KTR-mRuby2 reporter to perform nuclear and cytoplasmic segmentation and calculate nuclear-to-cytoplasmic ratios of the ERK-KTR (FIG. 3A, FIG. 3B and FIG. 9A).

[2] = tested on: GiLA1 organoid monolayers; experiment: Tissue patterning (nodes / cell clusters) in GiLA1 organoid monolayers; settings: for speed of node loss / patterning defects: GiLA1 monolayers, ERK activation methods compared
Experimental: SCREENSTAR 384-well black plates (Grenier #781866) were coated with ice cold Matrigel (CB40230C) diluted 1:40 in Serum-free Advanced-DMEM F12 media (SFM) for 1 hr. Monolayers were prepared using our previously described protocol (Thorne et al., 2018; Sanman et al., 2020). Briefly, cells were removed from 3D Matrigel and resuspended in ice cold SFM and washed three times using ice cold SFM. Organoids were then dissociated by resuspension in Trypsin+10 μM Y-27 for 4 min followed by quenching in DMEM supplemented with 10% FBS and washing. Coating media was removed from 384-well plates and organoids plated at 7000 cells/well after counting using hemocytometer and cultured for 24 hr. Seeding media was then removed and replaced with complete LWRN media and changed daily for 7 days until cultures became confluent and tissue patterning was observed.
384-well plates were imaged with fluorescent microscopy on a Nikon Eclipse TI2 automated microscope. For quantification of wave dynamics, organoids were imaged every 10-30 min. Tracking and segmentation of single cells in time lapse images in FIG. 2 was performed using the MATLAB program p53Cinema (Reyes et al., 2019). Analysis of the extracted data was performed in MATLAB. For the ERK activity heat maps in FIG. 3, images of the ERK-KTRmRuby2 and the H2B-iRFP670 were captured every 7 min for 24 hr. For each frame, individual nuclei were segmented using a MATLAB script developed in-house that identifies nuclei based on the H2B-iRFP670 images. The cytoplasmic ERK-KTRmRuby2 signal was obtained by creating a two pixel wide annulus surrounding the nucleus and averaging the intensity. Cells with active ERK were identified as having a mean ERK-KTR cytoplasmic signal>the mean ERK-KTR nuclear signal. The density-based spatial clustering of applications with noise algorithm (dbscan, MATLAB, 2021b) was performed on the centroids of ERK active cells to identify spatial clusters of cells with active ERK. A boundary was drawn around the spatial clusters using the boundary algorithm in MATLAB. The ERK positive regions of each frame were summed up to generate the heat map in MATLAB.
Since ERK waves are largely restricted to the post-mitotic, differentiated compartments in our gut organoid monolayer model, we hypothesized that ERK waves may help regulate the patterning observed in the GiLA1 monolayers by restricting the stem cell compartment. To test this hypothesis, we asked if global activation of ERK activity could disrupt the patterning of the organoid monolayers. a well-established activator of the ERK pathway, phorbol 12-myristate 13-acetate (PMA) was used to acutely activate ERK signaling across the monolayer. […] To determine if nodes re-formed once ERK activity returned to baseline, we treated GiLA1 monolayers with a pulse of 100 nM PMA for 1 min.

Wnt signaling = experiment: TopGFP Wnt reporter in organoid monolayers; settings: 3 μM pyrvinium, 72 hr
Experimental: Organoids were treated with either 3 μM pyrvinium to block Wnt signaling or 10 μM GSK-3 inhibitor to stimulate the Wnt pathway for 72 hr. Cells were fixed and stained for DAPI. Total GFP fluorescence across the monolayer was measured and normalized by mCherry control to obtain TopGFP measurements per condition. Significance between treatment groups was determined by t-test. Scale bar=100 μm.

SMILES	ERK waves and tropism towards dying cells [1]	time to activation of ERK (ERK)	speed of node loss / patterning defects [2]	Wnt signaling (TopGFP normalized by mCherry) (Wnt signaling)	ERK activity after continuous treatment (ERK; 100 nM PMA, 20-30 min (FIGS. 4B and C))	ERK levels after pulse treatment, later (ERK; pulse of 100 nM PMA for 1 min, after washout)	ERK activation after pulse treatment (ERK; pulse of 100 nM PMA for 1 min, read after 30 min)	loss of patterning (cell clusters) ([2]; 100 nM PMA, by 24 hr post-treatment (FIG. 4D-F))	node and ERK-KTR activity after pulse, washout and chase ([2]; PMA pulse 1 min, washout, chase for 24 hr (FIG. 4G bottom))	nodes after pulse treatment ([2]; pulse of 100 nM PMA for 1 min)	re-formation of nodes after pulse treatment ([2]; pulse of 100 nM PMA for 1 min, by 48 hr (FIG. 4G))
COc1cc2ncnc(Nc3ccc(F)c(Cl)c3)c2cc1OCCCN1CCOCC1 [Gefitinib]	did not induce ERK waves or display tropism towards dying cells	–	–	–	–	–	–	–	–	–	–
Cc1cc(/C=C/c2ccc3cc(N(C)C)ccc3[n+]2C)c(C)n1-c1ccccc1 [pyrvinium]	–	within hours	took days to induce patterning defects	Inhibits Wnt Signaling	–	–	–	–	–	–	–
CCCCCCCCCCCCCC(=O)O[C@@H]1[C@@H](C)[C@@]2(O)[C@@H](C=C(CO)C[C@]3(O)C(=O)C(C)=C[C@@H]23)[C@@H]2C(C)(C)[C@]12OC(C)=O [PMA, phorbol 12-myristate 13-acetate]	–	within hours	rapid node loss	–	immediate hyperactivated ERK was observed in all cells	ERK levels returned to normal	ERK activation in all cells	almost complete loss of cell clusters	node loss and resuppression of ERK activity	node loss	nodes did not re-form
